Experiment: xn = mol fraction of the nth substance listed
Conditions: Liquid, Vibrating tube method

COC(=O)c1ccccc1 [methyl benzoate] + CCCCCCO
mass density [kg/m3]
Conditions | x1 = 0.1004 | x1 = 0.2007 | x1 = 0.3007 | x1 = 0.4013 | x1 = 0.5005 | x1 = 0.6009 | x1 = 0.7 | x1 = 0.8008 | x1 = 0.9009
278.15 K, 100 kPa | 856.6 | 883.8 | 911.4 | 938.8 | 966 | 993.4 | 1020.3 | 1047.7 | 1075.1
278.15 K, 1000 kPa | 857.1 | 884.4 | 911.9 | 939.4 | 966.5 | 993.9 | 1020.8 | 1048.2 | 1075.5
278.15 K, 5000 kPa | 859.7 | 886.9 | 914.4 | 941.8 | 968.9 | 996.3 | 1023.2 | 1050.6 | 1077.9
278.15 K, 10000 kPa | 862.7 | 889.9 | 917.3 | 944.8 | 971.9 | 999.2 | 1026 | 1053.4 | 1080.7
278.15 K, 15000 kPa | 865.6 | 892.8 | 920.3 | 947.6 | 974.7 | 1002 | 1028.9 | 1056.3 | 1083.5
278.15 K, 20000 kPa | 868.5 | 895.6 | 923.1 | 950.4 | 977.5 | 1004.7 | 1031.6 | 1059 | 1086.2
278.15 K, 25000 kPa | 871.2 | 898.3 | 925.8 | 953.1 | 980.2 | 1007.4 | 1034.2 | 1061.6 | 1088.7
278.15 K, 30000 kPa | 873.8 | 901 | 928.4 | 955.8 | 982.8 | 1010 | 1036.8 | 1064.2 | 1091.3
278.15 K, 35000 kPa | 876.5 | 903.6 | 931 | 958.3 | 985.4 | 1012.6 | 1039.4 | 1066.7 | 1093.8
278.15 K, 40000 kPa | 879 | 906.1 | 933.6 | 960.9 | 987.9 | 1015.1 | 1041.9 | 1069.2 | 1096.3
278.15 K, 45000 kPa | 881.5 | 908.6 | 936 | 963.3 | 990.4 | 1017.6 | 1044.3 | 1071.7 | 1098.7
278.15 K, 50000 kPa | 883.9 | 911.1 | 938.5 | 965.8 | 992.8 | 1020 | 1046.7 | 1074 | 1101.1
278.15 K, 55000 kPa | 886.3 | 913.4 | 940.8 | 968.1 | 995.2 | 1022.3 | 1049.1 | 1076.4 | 1103.5
278.15 K, 60000 kPa | 888.4 | 915.6 | 943 | 970.3 | 997.3 | 1024.5 | 1051.4 | 1078.7 | 1105.6
288.15 K, 100 kPa | 849.1 | 876 | 903.2 | 930.4 | 957.3 | 984.4 | 1011.1 | 1038.4 | 1065.5
288.15 K, 1000 kPa | 849.7 | 876.6 | 903.8 | 931 | 957.9 | 985 | 1011.7 | 1039 | 1066
288.15 K, 5000 kPa | 852.3 | 879.2 | 906.4 | 933.6 | 960.4 | 987.5 | 1014.2 | 1041.4 | 1068.5
288.15 K, 10000 kPa | 855.5 | 882.4 | 909.5 | 936.7 | 963.5 | 990.6 | 1017.2 | 1044.5 | 1071.5
288.15 K, 15000 kPa | 858.5 | 885.5 | 912.6 | 939.7 | 966.5 | 993.6 | 1020.2 | 1047.4 | 1074.4
288.15 K, 20000 kPa | 861.5 | 888.4 | 915.5 | 942.6 | 969.4 | 996.4 | 1023 | 1050.2 | 1077.2
288.15 K, 25000 kPa | 864.3 | 891.2 | 918.3 | 945.4 | 972.2 | 999.3 | 1025.8 | 1053 | 1080
288.15 K, 30000 kPa | 867.1 | 894 | 921.1 | 948.2 | 975 | 1002 | 1028.5 | 1055.7 | 1082.6
288.15 K, 35000 kPa | 869.8 | 896.7 | 923.8 | 950.9 | 977.7 | 1004.6 | 1031.2 | 1058.3 | 1085.2
288.15 K, 40000 kPa | 872.4 | 899.3 | 926.4 | 953.5 | 980.2 | 1007.2 | 1033.8 | 1060.9 | 1087.8
288.15 K, 45000 kPa | 875 | 901.8 | 929 | 956 | 982.8 | 1009.8 | 1036.3 | 1063.4 | 1090.3
288.15 K, 50000 kPa | 877.5 | 904.4 | 931.5 | 958.5 | 985.3 | 1012.3 | 1038.8 | 1065.9 | 1092.8
288.15 K, 55000 kPa | 879.9 | 906.8 | 933.9 | 961 | 987.8 | 1014.7 | 1041.3 | 1068.3 | 1095.2
288.15 K, 60000 kPa | 882.3 | 909.2 | 936.2 | 963.2 | 990 | 1017 | 1043.7 | 1070.6 | 1097.5
298.15 K, 100 kPa | 841.5 | 868.2 | 895.1 | 922 | 948.6 | 975.5 | 1002 | 1029.1 | 1056
298.15 K, 1000 kPa | 842.2 | 868.8 | 895.7 | 922.6 | 949.2 | 976.1 | 1002.6 | 1029.7 | 1056.6
298.15 K, 5000 kPa | 844.9 | 871.6 | 898.4 | 925.3 | 951.9 | 978.8 | 1005.3 | 1032.3 | 1059.2
298.15 K, 10000 kPa | 848.3 | 874.9 | 901.7 | 928.5 | – | – | – | – | –
